Laboratory results published in US12564596B2, “Agents and methods for modulating pathogen activity” (Griffith University, priority 2018, dated 2026).
Like-named read-outs stand apart in the source and are kept apart here.

Tests used:
[1] = system: N. gonorrhoeae strains; assay: Well diffusion assay in the absence of human cells; set-up: species or system Neisseria gonorrhoeae; conditions: GC-agar, overnight 37° C.
Experimental: (§1) FIG. 22 is a graphical representation showing the effect of carbamazepine on N. gonorrhoeae in the absence of human cells. Well diffusion assays were performed in which N. gonorrhoeae strains were spread uniformly across the surface of GC-agar plates at a culture density of 10^7 bacterial per mL. Wells were then punctured within the agar surface to which carbamazepine (Cz; […], as noted), 0.2 μg/mL ceftriaxone (Cfx), 10 μg/mL ciprofloxacin (Cip), or 1% DMSO (vehicle control) were added. […] For agar plates in which a ZOI was not visible, data were recorded as the diameter of the well (6 mm), as indicated. Assays were performed in triplicate on 3 separate occasions. Data are presented as the mean and variance of the average values obtained for each assay; statistical significance was determined using a Student's t-test. […] This is consistent with a CR3-dependent, host-mediated mechanism of killing.
as §1, with “23” for “22”, “methyldopa” for “carbamazepine”, “methyldopa (Md;” for “carbamazepine (Cz;”
FIG. 24 is a graphical representation showing the effect of flufenamic acid on N. gonorrhoeae in the absence of human cells. Well diffusion assays were performed in which N. gonorrhoeae strains were spread uniformly across the surface of GC-agar plates at a culture density of 10^7 bacterial per mL. Wells were then punctured within the agar surface to which flufenamic acid ([…], as noted), 0.2 μg/mL ceftriaxone, 10 μg/mL ciprofloxacin, or 1% DMSO (vehicle control) were added. […] For agar plates in which a ZOI was not visible, data were recorded as the diameter of the well (6 mm), as indicated. Assays were performed in triplicate on 3 separate occasions. Data are presented as the mean and variance of the average values obtained for each assay; statistical significance was determined using a Student's t-test.

[2] = target: T1, N. gonorrhoeae MS11 pilin interaction with human rI-domain (Homo sapiens, UniProt P11215); assay: SPR 1:1 competition assay, MS11 pilin binding to rI-domain; conditions: for inhibition at 0.1 µM: 1:1 competition, 100 nM; for Block MS11 pilin in SPR: direct competition SPR; for Drug RU: drug alone flowed at 100 nM over immobilized rI-domain; for Pilin + Drug RU: drug and pilin flowed at 100 nM, 1:1
T1 construct: was performed with human rI-domain immobilized on a CM5 sensor chip surface; made in house
T1 sequence (P11215 150-328): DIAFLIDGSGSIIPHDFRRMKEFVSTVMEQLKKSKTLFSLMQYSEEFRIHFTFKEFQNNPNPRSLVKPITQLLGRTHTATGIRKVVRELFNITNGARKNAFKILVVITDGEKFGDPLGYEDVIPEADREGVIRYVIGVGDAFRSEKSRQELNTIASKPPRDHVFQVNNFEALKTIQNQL
Experimental: To determine if drugs with high affinity interactions with the human rI-domain could inhibit the interaction with MS11 pilin or HIV, competition assay between primary T-cell derived WITO HIV and N. gonorrhoeae MS11 pilin and the drugs were performed as described Mubaiwa et al (2017, Sci Rep. 7(1):5693). Competition analysis SPR of N. gonorrhoeae MS11 pilin and human rI-domain interaction was performed with human rI-domain immobilized on a CM5 sensor chip surface (low immobilization—˜3500 RU compared to ˜14000 RU for initial screening and KD calculations). N. gonorrhoeae MS11 purified pilin, drug or drug and pilin were flowed at 100 nM over the I-domain and the response units of the interactions were recorded.

[3] = target: T2, human recombinant I-domain (rI-domain) of CD11b (Homo sapiens, UniProt P11215); assay: Surface plasmon resonance binding to human rI-domain (KD)
T2 construct: made in house
T2 sequence (P11215 150-328 limits assumed): as the sequence (P11215 150-328) above

[4] = system: N. gonorrhoeae strain MS11gfp adherence to CHO-CR3 cells; assay: Fluorometric adherence assay, gonococci to CHO cells; format: cell-based, Neisseria gonorrhoeae
Experimental: The ability of carbamazepine to block adherence of N. gonorrhoeae strain MS11gfp to CHO-neo or CHO-CR3 cells was evaluated using a fluorometric adherence assay. Assays were performed essentially as described by Jen et al (2013, PLoS Pathog. 9(5):e1003377). In this regard, CHO-neo or CHO-CR3 cells were seeded to a 96-well plate and allowed to grow to confluence. MS11gfp gonococci were then used to challenge (1 h) CHO cells simultaneously with, or without, various concentrations of carbamazepine (as noted). Fluorescence (485/528 nm) intensity, corresponding to bacterial adherence, was recorded using a Synergy HT Multi-mode Microplate Reader (BioTek Instruments, Winooski, VT USA). The assay was performed in triplicate on 3 separate occasions. A Kruskal-Wallis k-sample analysis of variance was used to determine the statistical significance of the calculated mean of bacterial adherence.
(§2) The ability of the compounds, or negative controls to block adherence of N. gonorrhoeae strain MS11gfp to PEX cells, CHO-CR3, or CHO-neo cells was evaluated using a fluorometric microtiter plate assay. Assays were performed essentially as described by Jen et al. (2013, Plos Pathog 9(5): e1003377). In this regard, GFP-expressing gonococci were used to challenge (1 h) PEX or CHO cells immediately following compound addition. Fluorescence (485/528 nm) intensity, corresponding to bacterial adherence, was recorded using a Synergy HT Multi-mode Microplate Reader (BioTek Instruments, Winooski, VT USA). Blank wells, devoid of PEX or CHO cells, also were inoculated with bacteria and served as a control for non-specific binding. The assay was performed in triplicate on 3 separate occasions. A Student's t-test was used to determine the statistical significance of the calculated mean of bacterial adherence.

[5] = system: N. gonorrhoeae adherence to primary human cervical epithelial (PEX) cells; assay: Fluorometric adherence assay, gonococci to PEX cells; format: cell-based, Neisseria gonorrhoeae; conditions: for gonococcal adherence to PEX cells compared with uninfected cells: MS11gfp; for gonococcal adherence to PEX cells with increasing concentrations: 1 h post-challenge; for inhibition at 0.01 µM: Neisseria gonorrhoeae, 1 h, read-out: inhibition of adherence to PEX cells
Excerpt: Briefly, six N. gonorrhoeae strains were used in the experiments. These included the laboratory strain, MS11; the low-passage isolates, 1291, UT38097, LT38885, PID-26, and SK92-679; all of which were transformed with the green fluorescent protein (GFP) expression plasmid, pCmGFP (GenBank accession number FJ172221) Srikhanta et al (2009, PLoS Pathog. 5(4):e1000400) and, thus, expressed GFP Edwards et al (2000, Infect Immun 68(9):5354-63). […] The ability of carbamazepine to block the adherence of N. gonorrhoeae to human, primary cervical epithelial (PEX) cells was evaluated using a fluorometric adherence assay. Assays were performed essentially as described by Jen et al (2013, supra). In this regard, PEX cells were seeded to a 96-well plate and allowed to grow to confluence. Gonococci were then used to challenge (1 h) PEX cells simultaneously with, or without, various concentrations of carbamazepine ([…], 10 nM, 1 μM, or 100 μM, as noted) or 1% DMSO (vehicle control). Uninfected PEX cells treated with 1% DMSO served as a control for background fluorescence. Fluorescence (485/528 nm) intensity, corresponding to bacterial adherence, was recorded using a Synergy HT Multi-mode Microplate Reader (BioTek Instruments, Winooski, VT USA). The assay was performed in triplicate on 3 separate occasions. A Student's t-test was used to determine the statistical significance of the calculated mean of bacterial adherence.
as §2

[6] = system: primary T-cell derived WITO HIV interaction with human rI-domain; assay: SPR 1:1 competition assay, WITO HIV binding to rI-domain; conditions: for % inhibition: 1:1 competition, 1 μM; for Block HIV in SPR: direct competition SPR; for Drug RU: drug alone flowed at 1 μM over immobilized WITO HIV; for Pilin + Drug RU: drug and human rI-domain flowed at 1 μM, 1:1
Experimental: For competition analysis SPR of the HIV interaction with human rI-domain, primary T-cell derived WITO HIV was immobilized on a Cl sensor chip surface. Human rI-domain, drug or drug and human rI-domain were flowed at 1 μM over the immobilized HIV and the response units of the interactions were recorded. Any drug that could not compete with the virus or pilin binding to the rI-domain was also discarded. Remaining drugs were evaluated for known safety in humans and known therapeutic concentrations to determine if the drug would be tested, and at what concentrations, in in vitro cell models. All SPR sensorgrams and results plots were analyzed with Biacore S200 Evaluation Software (GE Healthcare Life Sciences).

[7] = 0.2 μg/mL ceftriaxone, 10 μg/mL ciprofloxacin

Compound	effect on N. gonorrhoeae in the absence of human cells (zone of inhibition) [1, 7]	inhibition at 0.1 µM [2]	Block MS11 pilin in SPR [2]	Drug RU [2]	Pilin + Drug RU [2]	Kd ([3]; SPR, single cycle kinetics, 25° C., PBS, read-out: KD)	gonococcal adherence to CHO-CR3 cells compared with CHO-neo cells ([4]; 100 μM, 1 h post-challenge)	gonococcal adherence to CHO-CR3, but not CHO-neo, cells with increasing concentrations ([4]; 1 h post-challenge)	gonococcal adherence to PEX cells compared with uninfected cells ([5]; 1 μM)	gonococcal adherence to PEX cells compared with uninfected cells ([5]; 100 μM)	gonococcal adherence to PEX cells with increasing concentrations [5]	inhibition at 0.01 µM [5]	% inhibition [6]	Block HIV in SPR [6]	Drug RU [6]	Pilin + Drug RU [6]	effect on N. gonorrhoeae in the absence of human cells (zone of inhibition) ([1]; 100 μM to 100 μM [sic])	Kd [3]	blocking of the adherence of gonococci to CR3 ([4]; 100 μM, CHO-CR3 cells, 1 h)	effect on N. gonorrhoeae in the absence of human cells (zone of inhibition) ([1]; concentrations of ≤1 μM)
CO/N=C(\C(=O)N[C@@H]1C(=O)N2C(C(=O)O)=C(CSc3nc(=O)c(=O)[nH]n3C)CS[C@H]12)c1csc(N)n1 [ceftriaxone]	direct effect in killing gonococci	–	–	–	–	–	–	–	–	–	–	–	–	–	–	–	–	–	–	–
O=C(O)c1cn(C2CC2)c2cc(N3CCNCC3)c(F)cc2c1=O [ciprofloxacin]	direct effect in killing gonococci	–	–	–	–	–	–	–	–	–	–	–	–	–	–	–	–	–	–	–
C[C@](N)(Cc1ccc(O)c(O)c1)C(=O)O [methyldopa, (S)-2-amino-3-(3,4-dihydroxyphenyl)-2-methyl-propanoic acid]	–	88.9%	Yes	4.578 RU	8.003 RU	1.01 nM	not significantly different than that recorded for CHO-neo cells	dose-dependent decrease	not significantly (p≥0.234) different than those obtained for vehicle (DMSO)-treated, uninfected PEX cells	not significantly (p≥0.234) different than that recorded for uninfected cells	dose-dependent decrease	~85%	93.94%	Yes	0.296 RU	3.692 RU	no effect	–	–	–
O=C(O)c1ccccc1Nc1cccc(C(F)(F)F)c1 [flufenamic acid, 2{[3-(trifluoromethyl)phenyl]amino}benzoic acid]	–	79.8%	Yes	4.627 RU	10.872 RU	–	–	dose-dependent decrease	–	–	dose-dependent decrease	~70%	85.47%	Yes	0.473 RU	8.857 RU	no effect	6.66 nM	Greater than 86%	no effect
